Measured values published in PubChem BioAssay AID330 (DTP/NCI, 2004).
Where “and” joins values, the source holds several entries; their conditions need not be identical. Equal values may be shown once. Inconclusive results and toxic doses are left out.

Tested on: P388 leukemia ip, CD2F1 mice, survival T/C
Test: NCI In Vivo Anticancer Drug Screen. Data for tumor model P388 Leukemia (intraperitoneal) in CD2F1 (CDF1) mice
Details: endpoint: median survival time, higher = longer survival
Outline: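 Mice carrying the transplanted tumor received test compound or vehicle. Survival was recorded in each group, and the value is the treated-group measurement divided by that of the vehicle-treated control group.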

[1] = dose: 50.0 mg/kg/injection, schedule: Q01DX005 (ip), vehicle: Klucel (hydroxypropylcellulose) (HPC)
[2] = dose: 100.0 mg/kg/injection, schedule: Q01DX005 (ip), vehicle: Klucel (hydroxypropylcellulose) (HPC)
[3] = dose: 200.0 mg/kg/injection, schedule: Q01DX005 (ip), vehicle: Klucel (hydroxypropylcellulose) (HPC)
[4] = dose: 50.0 mg/kg/injection, schedule: Q01DX009 (ip), vehicle: saline
[5] = dose: 100.0 mg/kg/injection, schedule: Q01DX009 (ip), vehicle: saline
[6] = dose: 200.0 mg/kg/injection, schedule: Q01DX009 (ip), vehicle: saline
[7] = dose: 60.0 mg/kg/injection, schedule: Q01DX005 (ip), vehicle: Klucel (hydroxypropylcellulose) (HPC)
[8] = dose: 12.5 mg/kg/injection, schedule: Q01DX009 (ip), vehicle: saline with Tween-80
[9] = dose: 25.0 mg/kg/injection, schedule: Q01DX009 (ip), vehicle: saline with Tween-80
[10] = dose: 100.0 mg/kg/injection, schedule: Q01DX009 (ip), vehicle: saline with Tween-80
[11] = dose: 100.0 mg/kg/injection, schedule: Q01DX001 (ip), vehicle: saline with Tween-80
[12] = dose: 200.0 mg/kg/injection, schedule: Q01DX001 (ip), vehicle: saline with Tween-80
[13] = dose: 50.0 mg/kg/injection, schedule: Q01DX009 (ip), vehicle: saline with Tween-80
[14] = dose: 200.0 mg/kg/injection, schedule: Q01DX009 (ip), vehicle: saline with Tween-80
[15] = dose: 50.0 mg/kg/injection, schedule: Q01DX009 (ip), vehicle: Klucel (hydroxypropylcellulose) (HPC)
[16] = dose: 100.0 mg/kg/injection, schedule: Q01DX009 (ip), vehicle: Klucel (hydroxypropylcellulose) (HPC)
[17] = dose: 200.0 mg/kg/injection, schedule: Q01DX009 (ip), vehicle: Klucel (hydroxypropylcellulose) (HPC)
[18] = dose: 50.0 mg/kg/injection, schedule: Q01DX005 (ip), vehicle: saline
[19] = dose: 100.0 mg/kg/injection, schedule: Q01DX005 (ip), vehicle: saline

COc1ccc(N2c3ccccc3-c3cc[nH]c(=O)c3[C@H]2O)cc1OC
T/C (dose: 18.75 mg/kg/injection, schedule: Q01DX001 (ip), vehicle: Klucel (hydroxypropylcellulose) (HPC)): 101 % of control | T/C (dose: 18.75 mg/kg/injection, schedule: Q04DX002 (ip), vehicle: Klucel (hydroxypropylcellulose) (HPC)): 99 % of control | T/C (dose: 18.75 mg/kg/injection, schedule: Q04DX003 (ip), vehicle: Klucel (hydroxypropylcellulose) (HPC)): 112 % of control | T/C (dose: 37.5 mg/kg/injection, schedule: Q01DX001 (ip), vehicle: Klucel (hydroxypropylcellulose) (HPC)): 100 % of control | T/C (dose: 37.5 mg/kg/injection, schedule: Q04DX002 (ip), vehicle: Klucel (hydroxypropylcellulose) (HPC)): 110 % of control | T/C (dose: 37.5 mg/kg/injection, schedule: Q04DX003 (ip), vehicle: Klucel (hydroxypropylcellulose) (HPC)): 96 % of control | T/C (dose: 75.0 mg/kg/injection, schedule: Q01DX001 (ip), vehicle: Klucel (hydroxypropylcellulose) (HPC)): 103 % of control | T/C (dose: 75.0 mg/kg/injection, schedule: Q04DX002 (ip), vehicle: Klucel (hydroxypropylcellulose) (HPC)): 106 % of control | T/C (dose: 75.0 mg/kg/injection, schedule: Q04DX003 (ip), vehicle: Klucel (hydroxypropylcellulose) (HPC)): 96 % of control | T/C (dose: 150.0 mg/kg/injection, schedule: Q01DX001 (ip), vehicle: Klucel (hydroxypropylcellulose) (HPC)): 104 % of control | T/C (dose: 150.0 mg/kg/injection, schedule: Q04DX002 (ip), vehicle: Klucel (hydroxypropylcellulose) (HPC)): 101 % of control | T/C (dose: 150.0 mg/kg/injection, schedule: Q04DX003 (ip), vehicle: Klucel (hydroxypropylcellulose) (HPC)): 106 % of control

O=C(NC(Cc1ccc(I)cc1)C(=O)O)c1ccc(Cl)cc1 (stereo not given)
T/C [1]: 95 % of control | T/C [2]: 100 % of control | T/C [3]: 108 % of control

COC(=O)C1C/C=C\C=C/N(C)C1=O (stereo not given)
T/C (dose: 100.0 mg/kg/injection, schedule: Q04DX002 (ip), vehicle: saline with Tween-80): 102 % of control | T/C (dose: 200.0 mg/kg/injection, schedule: Q04DX002 (ip), vehicle: saline with Tween-80): 101 % of control | T/C (dose: 400.0 mg/kg/injection, schedule: Q04DX002 (ip), vehicle: saline with Tween-80): 101 % of control

CN1C2CCC1C(CCl)C(O)C2 (stereo not given)
T/C [4]: 92 % of control | T/C [5]: 88 % of control | T/C [6]: 88 % of control

COC1(OC)C(c2ccc(Cl)cc2)C(C#N)(C#N)C1(OC)OC (stereo not given)
T/C [7]: 100 % of control | T/C (dose: 120.0 mg/kg/injection, schedule: Q01DX005 (ip), vehicle: Klucel (hydroxypropylcellulose) (HPC)): 102 % of control | T/C (dose: 240.0 mg/kg/injection, schedule: Q01DX005 (ip), vehicle: Klucel (hydroxypropylcellulose) (HPC)): 96 % of control

CC(=O)Nc1ccc2oc3ccc(Cl)cc3c(=O)c2c1
T/C [1]: 98 % of control | T/C [2]: 92 % of control | T/C [3]: 91 % of control

CN(CO)c1nc(N(C)CO)nc(N(C)CO)n1
T/C [8]: 110 % of control | T/C (dose: 12.5 mg/kg/injection, schedule: Q01DX009 (ip), vehicle: saline): 103 % of control | T/C [9]: 119 % of control | T/C [4]: 160 % of control | T/C [10]: 151 % of control | T/C [5]: 203 % of control

CC(=O)ON(C(=O)c1ccc([N+](=O)[O-])cc1)c1ccc(C=O)cc1
T/C [11]: 102 % of control | T/C [12]: 101 % of control

O=C1NC(=O)C2(CCCc3c([N+](=O)[O-])cccc32)N1 (stereo not given)
T/C [13]: 97 % of control | T/C [10]: 93 % of control | T/C [14]: 90 % of control

O=C1NCCNC1c1ccccc1 (stereo not given)
T/C (dose: 25.0 mg/kg/injection, schedule: Q01DX009 (ip), vehicle: saline): 102 % of control | T/C [4]: 102 % of control | T/C [5]: 98 % of control | T/C [6]: 100 % of control

COc1cccc(C(Nc2nncs2)Nc2nncs2)c1[N+](=O)[O-]
T/C (dose: 60.0 mg/kg/injection, schedule: Q01DX005 (ip), vehicle: saline with Tween-80): 98 % of control | T/C (dose: 120.0 mg/kg/injection, schedule: Q01DX005 (ip), vehicle: saline with Tween-80): 98 % of control | T/C (dose: 240.0 mg/kg/injection, schedule: Q01DX005 (ip), vehicle: saline with Tween-80): 101 % of control

CCOc1ccc(N2C(=O)C(=O)C(C(C)=O)C2=O)cc1 (stereo not given)
T/C [15]: 108 % of control | T/C [16]: 106 % of control | T/C [17]: 100 % of control

CC1(C)OCC(C2OC(C)(C)OC2/C=C2/CC(=O)NC2=O)O1 (stereo not given)
T/C [15]: 100 % of control and 107 % of control | T/C [16]: 100 % of control and 120 % of control | T/C [17]: 102 % of control and 122 % of control | T/C (dose: 400.0 mg/kg/injection, schedule: Q01DX009 (ip), vehicle: Klucel (hydroxypropylcellulose) (HPC)): 116 % of control

CC(C)C(Br)C(N)=O (stereo not given)
T/C (dose: 100.0 mg/kg/injection, schedule: Q04DX002 (ip), vehicle: Klucel (hydroxypropylcellulose) (HPC)): 100 % of control | T/C (dose: 200.0 mg/kg/injection, schedule: Q04DX002 (ip), vehicle: Klucel (hydroxypropylcellulose) (HPC)): 103 % of control | T/C (dose: 400.0 mg/kg/injection, schedule: Q04DX002 (ip), vehicle: Klucel (hydroxypropylcellulose) (HPC)): 105 % of control

CCC1C(=O)OCc2c1cc1n(c2=O)Cc2ccccc2-1 (stereo not given)
T/C [11]: 97 % of control | T/C [12]: 92 % of control | T/C (dose: 400.0 mg/kg/injection, schedule: Q01DX001 (ip), vehicle: saline with Tween-80): 90 % of control

Cn1cc(N=P(c2ccccc2)(c2ccccc2)c2ccccc2)c(=O)n(C)c1=O
T/C (dose: 15.0 mg/kg/injection, schedule: Q01DX005 (ip), vehicle: Klucel (hydroxypropylcellulose) (HPC)): 114 % of control | T/C (dose: 30.0 mg/kg/injection, schedule: Q01DX005 (ip), vehicle: Klucel (hydroxypropylcellulose) (HPC)): 105 % of control | T/C [7]: 107 % of control

CCCCCCCCCC1OCN2CCCCC12 (stereo not given)
T/C [18]: 105 % of control | T/C [19]: 96 % of control | T/C (dose: 200.0 mg/kg/injection, schedule: Q01DX005 (ip), vehicle: saline): 115 % of control

CC(=O)NCCSSSCCNC(C)=O
T/C [18]: 115 % of control | T/C [19]: 115 % of control

O=C(NO)C1NC1C(=O)NO (stereo not given)
T/C (dose: 25.0 mg/kg/injection, schedule: Q01DX009 (ip), vehicle: water): 96 % of control | T/C (dose: 50.0 mg/kg/injection, schedule: Q01DX009 (ip), vehicle: water): 109 % of control | T/C (dose: 100.0 mg/kg/injection, schedule: Q01DX001 (ip), vehicle: water): 100 % of control | T/C (dose: 100.0 mg/kg/injection, schedule: Q01DX009 (ip), vehicle: water): 111 % of control | T/C (dose: 100.0 mg/kg/injection, schedule: Q04DX003 (ip), vehicle: water): 115 % of control | T/C (dose: 200.0 mg/kg/injection, schedule: Q01DX001 (ip), vehicle: water): 107 % of control | T/C (dose: 200.0 mg/kg/injection, schedule: Q04DX003 (ip), vehicle: water): 112 % of control | T/C (dose: 400.0 mg/kg/injection, schedule: Q01DX001 (ip), vehicle: water): 100 % of control | T/C (dose: 400.0 mg/kg/injection, schedule: Q04DX003 (ip), vehicle: water): 112 % of control | T/C (dose: 600.0 mg/kg/injection, schedule: Q01DX001 (ip), vehicle: water): 101 % of control

CN(C)P(c1ccccc1)N(C)C
T/C [15]: 106 % of control | T/C [16]: 102 % of control | T/C [17]: 107 % of control

O=C(c1ccc(Cl)cc1)C(O)NC(=S)c1ccc(Cl)cc1 (stereo not given)
T/C [13]: 96 % of control | T/C [10]: 111 % of control | T/C [14]: 113 % of control

CC(NC(=O)OC(C)(C)C)C(=O)NC(C)C(=O)NC(C)C(=O)OCc1ccccc1 (stereo not given)
T/C (dose: 50.0 mg/kg/injection, schedule: Q01DX005 (ip), vehicle: saline with Tween-80): 99 % of control | T/C (dose: 100.0 mg/kg/injection, schedule: Q01DX005 (ip), vehicle: saline with Tween-80): 99 % of control | T/C (dose: 200.0 mg/kg/injection, schedule: Q01DX005 (ip), vehicle: saline with Tween-80): 101 % of control

COc1cc(/C=C/c2nnc3c4ccccc4cnn23)cc(OC)c1OC
T/C [8]: 99 % of control | T/C [9]: 100 % of control | T/C [13]: 101 % of control and 91 % of control | T/C [10]: 93 % of control | T/C [14]: 94 % of control

N#C/C(=C\c1ccccc1)CN1CCCCC1
T/C [11]: 110 % of control | T/C [12]: 122 % of control

CCCCCOCC(=O)O
T/C [9]: 104 % of control | T/C [13]: 94 % of control | T/C [10]: 96 % of control
